Source: US20250011404A1, “TARGETING APOE ENHANCES T-CELL KILLING IN CANCER IMMUNOTHERAPY” (Children's National Medical Center, priority 2021, published 2025)
“Also recorded” adds a separate entry of the source.

Columns and labels:
[1] = test system: vaccinated splenocytes from lrp8−/− mice; assay: Cytokine production of vaccinated splenocytes from lrp8−/− mice co-cultured with immunogenic B16 cells (ELISA, multiplex); format: cell-based, mouse
Text: To functionally define the role of the lrp8 receptor engagement in apoE suppression, vaccinated splenocytes from lrp8^−/− mice were isolated. These cells were co-cultured with BET/JQ1 treated (Myc-suppressed) immunogenic B16 cells for 48 hr with or without exposure to the apoE mimetic COG133. […] In addition, using ProcartaPlex multiplex immunoassay, we also quantified other cytokines/chemokines produced in the reaction. […] These included effector function: IFNγ; stimulator function, IL18, GM-CSF, G-CSF; inflammatory cytokines: IL2, IL3, IL4, IL5, IL9, IL13, IL23, IL12p70; chemo attractant factors: MCP-1, MCP3, MIP-1α, CCL-5 (Rantes); and regulatory factors: IL6, IL-10 (P<0.05). […] Cell culture supernatant was collected after centrifuge at 1,200 rpm for 10 min at 4° C. The concentrations of the following immune molecules were determined using the mouse Cytokine & Chemokine 36-plex ProcartaPlex Panel, a magnetic bead-based multiplex immunoassay (Thermo Scientific) following our previous protocol(19). Briefly, cell culture supernatant samples were mixed with antibody-linked polystyrene beads on a 96-well plate and incubated at room temperature (RT) for 2 h on an orbital shaker at 500 rpm. After washing, plates were incubated with biotinylated detection antibody for 30 min at RT. Plates were then washed twice and then labeled beads were resuspended in streptavidin-PE. Each sample was measured in duplicate along with standards (8-point dilutions) and the buffer control. Plates were read using a Luminex Bio-plex 200 system (Bio-Rad Corp.) for quantitative analysis. WT and apoE^−/− mice or WT and lrp8^−/− mice, were inoculated with either WT B16 or apoE^−/− B16 cells, with anti-CTLA4 antibody on day 0. These vaccinated splenocytes (VS) were harvested on day 7 and co-cultured with either WT B16 or apoE^−/− B16 cells for 48 hr, following which IFNγ levels in media were compared with ELISA assay. […] Readings were measured at 450 nm using the EnSpire 2300 Multilabel plate reader (Perkin Elmer, Waltham, Massachusetts, US).

activated mouse T cells = assay: Viability of CD3/CD28-activated T cells, flow cytometry with Sytox Red dead cell stain; format: cell-based; conditions: T cells activated with CD3/CD28 dynabeads; COG133 0, 3, 9, 15 and 30 μM; 48 hr
Procedure: FIG. 14A: T cells isolated from naïve mouse spleens were cultured in RPMI media, WT B16 conditioned media and apoE^−/− B16 conditioned media for 48 hr and the media was analyzed with ProcartaPlex multiplex immunoassay. […] Remarkably, these effects were reversed by incubating T-cells with conditioned media from apoE^−/− cells, similar to T-cells activated in control RPMI media alone. Results are expressed as mean score±SD. *p<0.05; **p<0.005; ***p<0.001, determined by unpaired two-tailed Student's t-test. FIG. 14B: The effect of apoE agonist peptide COG133 on the viability of activated mouse T cells was tested by culturing the cells in the presence of the indicated concentrations of peptide for 48 hr and cell death was quantified with flow cytometry using the APC-conjugated Sytox Red dead cell stain. […] The number in Quadrant 2 is the percentage of dead cells.
T cells were activated with CD3/CD28 dynabeads and the effects of COG133 (0, 3, 9, 15 and 30 μM concentrations) on T cell apoptosis were evaluated.
Spleens were collected from mice euthanized by C02 narcosis and cervical dislocation. Spleens were pulverized through a 40-μm mesh cell strainer and treated with ACK lysing buffer (Thermo Fisher) for 10 seconds to remove erythrocytes. […]

COG133: a fragment of apoE peptide, which competes with the apoE holoprotein for binding the LDL receptors and acts as an apoE mimetic
detectable cytokines with pattern similar to IFNγ: inhibition in WT mice, reversed in lrp8−/− splenocytes ([1]; ProcartaPlex multiplex, with or without COG133, 48 hr): Seventeen out of 27 | IFNγ production from lrp8−/− vaccinated splenocytes ([1]; co-culture with BET/JQ1 treated B16 cells 48 hr, with COG133): inhibitory effect was lacking; also recorded: suppression did not occur | IL-13, IL-4, IL22, IL18, MCP-1, RANTES and Gro-α, lrp8−/− vaccinated splenocytes ([1]; co-culture with Myc-inhibited B16 cells 48 hr, multiplex immunoassay (FIG. 18)): suppressive effect is diminished | T cell viability (activated mouse T cells): diminished in a dose dependent manner; also recorded: decreases in a dose dependent fashion
